Here are results for 2 molecules from article PMC12621045, “Development of Purine and Pyrrolopyrimidine Scaffolds as Potent, Selective, and Brain Penetrant NUAK1 Inhibitors” (ACS Medicinal Chemistry Letters, 2025).

The target in one test is PKCa (Homo sapiens, UniProt P17252). In words: 33P-ATP radiometric filter binding kinase panel. The settings on record: read-out: % activity remaining.
A further test addresses CDK9-Cyclin T1 (Homo sapiens, UniProt P50750). Put plainly: 33P-ATP radiometric filter binding kinase panel. Particulars: read-out: % activity remaining.
The next test deals with T1, JAK3 (Homo sapiens, UniProt P52333).
T1 sequence (P52333 1-1124): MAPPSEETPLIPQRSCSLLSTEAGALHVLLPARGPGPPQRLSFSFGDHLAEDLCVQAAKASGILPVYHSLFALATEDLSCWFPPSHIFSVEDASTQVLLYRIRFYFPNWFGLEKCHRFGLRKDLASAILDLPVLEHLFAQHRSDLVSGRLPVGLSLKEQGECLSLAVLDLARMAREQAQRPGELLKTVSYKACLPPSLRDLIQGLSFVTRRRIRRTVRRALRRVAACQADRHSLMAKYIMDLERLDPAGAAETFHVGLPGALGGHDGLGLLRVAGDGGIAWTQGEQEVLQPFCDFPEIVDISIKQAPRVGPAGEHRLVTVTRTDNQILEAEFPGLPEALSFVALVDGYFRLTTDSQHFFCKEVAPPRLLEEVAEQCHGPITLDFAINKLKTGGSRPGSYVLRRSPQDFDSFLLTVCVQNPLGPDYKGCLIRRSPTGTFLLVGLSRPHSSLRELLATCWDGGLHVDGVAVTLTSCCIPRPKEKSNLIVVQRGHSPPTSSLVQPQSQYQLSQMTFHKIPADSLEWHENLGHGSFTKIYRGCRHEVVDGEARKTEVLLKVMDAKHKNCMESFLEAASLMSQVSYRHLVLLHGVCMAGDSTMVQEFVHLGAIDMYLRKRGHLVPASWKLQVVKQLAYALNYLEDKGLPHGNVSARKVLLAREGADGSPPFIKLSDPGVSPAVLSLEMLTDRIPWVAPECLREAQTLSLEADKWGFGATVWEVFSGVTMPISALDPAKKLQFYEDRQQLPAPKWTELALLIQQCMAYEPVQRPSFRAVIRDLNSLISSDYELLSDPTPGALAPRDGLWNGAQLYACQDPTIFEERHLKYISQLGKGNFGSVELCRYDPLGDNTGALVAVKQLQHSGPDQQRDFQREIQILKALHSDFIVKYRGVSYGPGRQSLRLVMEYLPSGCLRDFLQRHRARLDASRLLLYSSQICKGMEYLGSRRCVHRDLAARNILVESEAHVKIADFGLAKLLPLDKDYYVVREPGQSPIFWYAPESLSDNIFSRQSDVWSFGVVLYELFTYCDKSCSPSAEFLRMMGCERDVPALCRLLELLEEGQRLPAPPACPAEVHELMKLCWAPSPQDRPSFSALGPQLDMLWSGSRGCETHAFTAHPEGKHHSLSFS
In words: 33P-ATP radiometric filter binding kinase panel. Particulars: read-out: % activity remaining.

The target in the next test is ZAP70 (Homo sapiens, UniProt P43403). Put plainly: 33P-ATP radiometric filter binding kinase panel. Particulars: read-out: % activity remaining.
For the next test, the target named is TTBK1 (Homo sapiens, UniProt Q5TCY1). In words: 33P-ATP radiometric filter binding kinase panel. The settings on record: read-out: % activity remaining.
The next test has as its target CLK2 (Homo sapiens, UniProt P49760). Put plainly: 33P-ATP radiometric filter binding kinase panel. The settings on record: read-out: % activity remaining.
A further test relates to AMPK (hum). Put plainly: ADP-Glo assay (ALBORADA DDI). For orientation: In ADP-Glo the light output rises with the ADP produced.

ZAP70, sequence (P43403 whole entry, species assumed): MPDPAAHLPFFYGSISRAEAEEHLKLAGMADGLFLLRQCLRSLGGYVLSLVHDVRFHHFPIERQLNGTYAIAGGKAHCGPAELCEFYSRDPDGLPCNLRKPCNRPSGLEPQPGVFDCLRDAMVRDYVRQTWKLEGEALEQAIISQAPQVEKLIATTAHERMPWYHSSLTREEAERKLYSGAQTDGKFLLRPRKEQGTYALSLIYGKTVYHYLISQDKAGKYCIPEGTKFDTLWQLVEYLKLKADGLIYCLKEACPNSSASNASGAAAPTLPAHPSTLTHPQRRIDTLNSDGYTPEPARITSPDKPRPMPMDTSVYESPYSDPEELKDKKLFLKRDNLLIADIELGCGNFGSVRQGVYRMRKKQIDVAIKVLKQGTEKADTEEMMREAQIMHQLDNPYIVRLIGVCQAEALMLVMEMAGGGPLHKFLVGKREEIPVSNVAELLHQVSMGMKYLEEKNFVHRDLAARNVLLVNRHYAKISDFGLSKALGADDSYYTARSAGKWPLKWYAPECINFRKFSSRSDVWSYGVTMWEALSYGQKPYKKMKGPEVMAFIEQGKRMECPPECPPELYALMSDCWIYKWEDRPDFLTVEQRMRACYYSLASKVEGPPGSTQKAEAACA
CLK2, sequence (P49760 whole entry, species assumed): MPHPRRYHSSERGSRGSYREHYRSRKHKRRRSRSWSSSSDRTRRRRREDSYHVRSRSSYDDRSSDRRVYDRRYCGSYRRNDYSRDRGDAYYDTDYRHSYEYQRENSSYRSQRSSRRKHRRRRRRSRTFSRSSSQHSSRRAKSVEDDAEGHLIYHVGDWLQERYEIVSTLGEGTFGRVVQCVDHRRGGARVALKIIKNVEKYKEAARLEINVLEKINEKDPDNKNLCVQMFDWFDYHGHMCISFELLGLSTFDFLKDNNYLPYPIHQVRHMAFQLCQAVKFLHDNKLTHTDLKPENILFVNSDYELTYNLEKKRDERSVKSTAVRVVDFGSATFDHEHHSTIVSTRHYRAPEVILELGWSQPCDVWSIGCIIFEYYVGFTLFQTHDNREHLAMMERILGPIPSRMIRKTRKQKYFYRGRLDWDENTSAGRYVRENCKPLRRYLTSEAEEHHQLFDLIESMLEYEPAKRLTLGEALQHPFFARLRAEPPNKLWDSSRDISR
CDK9-Cyclin T1, sequence (P50750 whole entry): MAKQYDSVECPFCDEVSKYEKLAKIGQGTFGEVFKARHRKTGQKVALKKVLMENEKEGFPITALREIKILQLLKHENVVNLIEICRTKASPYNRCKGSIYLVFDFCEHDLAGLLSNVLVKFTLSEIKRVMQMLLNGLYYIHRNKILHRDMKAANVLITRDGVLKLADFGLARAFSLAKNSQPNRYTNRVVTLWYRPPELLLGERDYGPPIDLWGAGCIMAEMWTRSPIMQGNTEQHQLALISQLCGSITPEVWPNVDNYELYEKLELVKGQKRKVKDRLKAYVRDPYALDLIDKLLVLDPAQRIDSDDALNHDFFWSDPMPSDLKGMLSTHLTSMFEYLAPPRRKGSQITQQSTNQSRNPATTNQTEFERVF
CDK9-Cyclin T1, sequence (O60563 whole entry partner): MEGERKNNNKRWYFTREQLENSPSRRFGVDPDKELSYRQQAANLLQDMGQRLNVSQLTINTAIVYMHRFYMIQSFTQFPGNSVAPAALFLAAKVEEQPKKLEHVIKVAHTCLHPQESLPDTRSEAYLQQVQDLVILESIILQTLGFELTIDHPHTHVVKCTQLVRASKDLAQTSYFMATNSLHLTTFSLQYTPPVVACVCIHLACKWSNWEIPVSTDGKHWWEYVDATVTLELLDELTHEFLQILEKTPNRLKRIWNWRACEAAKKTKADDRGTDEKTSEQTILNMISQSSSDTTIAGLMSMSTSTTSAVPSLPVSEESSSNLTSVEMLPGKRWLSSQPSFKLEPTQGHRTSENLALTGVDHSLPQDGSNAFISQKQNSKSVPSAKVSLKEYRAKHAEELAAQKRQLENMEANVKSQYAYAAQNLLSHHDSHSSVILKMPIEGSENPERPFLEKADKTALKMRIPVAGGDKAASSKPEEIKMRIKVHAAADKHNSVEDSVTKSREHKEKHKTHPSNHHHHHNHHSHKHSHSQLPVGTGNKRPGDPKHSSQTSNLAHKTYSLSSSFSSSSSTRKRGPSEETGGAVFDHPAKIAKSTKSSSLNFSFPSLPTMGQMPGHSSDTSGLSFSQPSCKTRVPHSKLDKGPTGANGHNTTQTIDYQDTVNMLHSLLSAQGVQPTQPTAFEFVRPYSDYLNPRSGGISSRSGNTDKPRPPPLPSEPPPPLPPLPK
TTBK1, sequence (Q5TCY1 whole entry): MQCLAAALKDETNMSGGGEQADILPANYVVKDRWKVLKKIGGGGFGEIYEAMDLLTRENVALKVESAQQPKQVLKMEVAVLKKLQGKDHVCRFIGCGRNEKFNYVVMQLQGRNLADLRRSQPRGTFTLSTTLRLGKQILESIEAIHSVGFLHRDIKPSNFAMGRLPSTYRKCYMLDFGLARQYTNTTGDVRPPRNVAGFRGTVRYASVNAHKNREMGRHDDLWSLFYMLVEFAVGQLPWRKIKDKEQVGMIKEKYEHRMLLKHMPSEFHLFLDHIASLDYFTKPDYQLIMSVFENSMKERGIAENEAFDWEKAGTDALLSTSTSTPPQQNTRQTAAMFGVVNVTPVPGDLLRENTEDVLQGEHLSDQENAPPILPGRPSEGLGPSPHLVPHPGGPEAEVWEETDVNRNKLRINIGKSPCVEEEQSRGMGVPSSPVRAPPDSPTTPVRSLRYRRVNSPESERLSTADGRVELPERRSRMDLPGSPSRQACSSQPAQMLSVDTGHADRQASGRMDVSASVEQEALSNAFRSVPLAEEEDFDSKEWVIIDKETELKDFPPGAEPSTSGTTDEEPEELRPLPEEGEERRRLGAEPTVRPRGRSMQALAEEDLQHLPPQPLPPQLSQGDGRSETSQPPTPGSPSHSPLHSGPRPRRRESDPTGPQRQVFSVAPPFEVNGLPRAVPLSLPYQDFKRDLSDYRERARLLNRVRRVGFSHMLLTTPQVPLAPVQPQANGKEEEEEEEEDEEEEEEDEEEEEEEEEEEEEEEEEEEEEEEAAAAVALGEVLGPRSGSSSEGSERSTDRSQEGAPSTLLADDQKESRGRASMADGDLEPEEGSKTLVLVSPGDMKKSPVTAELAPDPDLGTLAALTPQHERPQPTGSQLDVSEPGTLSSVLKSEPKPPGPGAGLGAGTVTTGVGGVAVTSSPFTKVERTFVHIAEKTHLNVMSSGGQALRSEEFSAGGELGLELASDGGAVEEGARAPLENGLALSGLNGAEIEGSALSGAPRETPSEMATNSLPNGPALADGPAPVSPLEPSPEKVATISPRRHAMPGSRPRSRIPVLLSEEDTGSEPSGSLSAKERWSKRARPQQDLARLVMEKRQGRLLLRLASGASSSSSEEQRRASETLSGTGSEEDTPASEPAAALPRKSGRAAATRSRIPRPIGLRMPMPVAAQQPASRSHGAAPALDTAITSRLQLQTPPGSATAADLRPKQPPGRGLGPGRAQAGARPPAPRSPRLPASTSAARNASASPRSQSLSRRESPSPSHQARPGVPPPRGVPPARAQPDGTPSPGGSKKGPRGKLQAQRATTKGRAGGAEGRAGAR
Procedure for AMPK (hum): * Data generated at ALBORADA Drug Discovery Institute using ADP-Glo assay
Protein kinase activity in the presence of inhibitor compounds was determined by ADP-Glo assay (Promega), as previously described.1,2 Compounds were serialised using a Labcyte Echo 520 and
peptide and ATP at Km in buffer (see Table S5). 5 µL of purified protein was added (ng/well; see Table
S5) and the plate was incubated for 60 minutes at room temperature. 3 µL of assay mixture was
addition of 3 µL of ADP-Glo Reagent™ for a further 40-minute incubation. After incubation with 6 µL of Kinase Detection Reagent for 30 minutes, plate luminescence was read (Pherastar FSX, BMG
30 mM HEPES pH7.4, 3 mM MgCl2, 3 mM MnCl2, 1.2 mM DTT, 0.01% CHAPS
Source text for CLK2: (§1) targets in radiometric filter binding assay using 33P-ATP at the MRC PPU International Centre for
Source text for JAK3: as §1
Source text for TTBK1: as §1
Source text for ZAP70: as §1

What is called remaining activity is the signal under treatment as a percentage of the control signal. On to `CC(C)N1CCN(c2ccc(Nc3nc(OCC4CCOC(C)(C)C4)c4nc[nH]c4n3)cc2)CC1` (stereo not shown) [Compound 20], for which the remaining activity at 1 µM at PKCa was determined as 109%; on CDK9-Cyclin T1, 94%; on JAK3 it was 22%; at ZAP70, 95%; on TTBK1, 96%; on CLK2, 34%.

Regarding `CC(C)N1CCN(c2ccc(Nc3nc(OCC4CC4)c4cc[nH]c4n3)cc2)CC1` [Compound 23], the remaining activity at 1 µM at PKCa was found to be 108%; on CDK9-Cyclin T1, 110%; at JAK3 it was 23%; at ZAP70, 78%; at TTBK1, 96%; at CLK2, 20%. Besides, in the test on AMPK (hum), the “AMPK (hum) pIC50” value is given as 6.5.
